This note sets out measurements from patent US20240261422A1, “ANTHRACYCLINE ANTIBODY CONJUGATES” (SEAGEN INC., priority 2021, published 2024).

In one experiment the test system is L540cy, HL. Put plainly: In vitro growth inhibition (CellTiter-Glo, 96 h), L540cy. It counts as cell-based. The method, then:
(§1) Cell culture of cell lines as listed in Table 2-4 in log-phase growth were seeded in 96-well plates and grown for 24 h in cell culture media containing 150 μL RPMI 1640 supplemented with 20% FBS (see Mol. Cancer Ther., 2016, 15(5), 938-945 and Mol. Cancer Ther., 2018, 17(8), 1752-1760). Serial dilutions of free drugs or antibody-drug conjugates (final concentration between 0.004 nM and 1 μM) in cell culture media were prepared at 4× working concentrations; 50 μL of each dilution was added to the 96-well plates. Following addition of the drug or ADC, the cells were incubated with test articles (free drugs or ADCs) for 4 d at 37° C. After 96 h, growth inhibition was assessed by CellTiter-Glo® (Promega, Madison, WI) and luminescence was measured on a plate reader (brand, model).
(§2) Cells were treated for 96 hours with anthracycline analogues listed in Table 2, and then assessed for viability as described in the procedures as described above. […] ND denotes value not determined with that assay for the specified compound.
(§3) ADCs were prepared by full reduction of interchain disulfides to reveal 8-conjugatable cysteines/antibody, and subsequent alkylation with the maleimide-containing drug-linkers (Compounds 14, 18, 21, 24, 29, 32, 33, 34, and 48) according to the procedures described in Mol. Cancer Ther. 2018, 17(8). 1752-1760. Conjugates of antibody cOKT9 were prepared with anthracycline linkers. Cancer cell lines were treated with cOKT9 ADCs (average DAR of 8:1) for 96 h and then assessed for viability. […] ND denotes value not determined with that assay for the specified compound.
(§4) Anti-CD30 ADCs comprising cAC10 antibody conjugated to drug-linkers 24, 32, 29, 18, 14, and 48 with an average DAR of 4 were prepared for evaluation on a CD30-expressing lymphoma cell line panel. […] Anti-CD30 conjugates bearing the PNU linkers 24, 32, 29, 18, and 14 were active on L540cy, DEL, and Karpas299 lymphoma cell lines, and conjugate 48 was active on L540cy and DEL cell lines, with IC50s ranging from 0.2-4 ng/mL.
(Cellular ATP, detected with luciferase, serves as a proxy for viable cell number.)

For the next experiment, the system named is HL60/RV, MDR + AML. Put plainly: In vitro growth inhibition (CellTiter-Glo, 96 h), HL60/RV. It counts as cell-based. Conditions: cOKT9 ADCs, average DAR 8, 96 h. How it is done: as §1, §2, §3
A further experiment deals with Karpas299, ALCL. The experiment can be described thus: In vitro growth inhibition (CellTiter-Glo, 96 h), Karpas299. It counts as cell-based. Conditions: cAC10 (anti-CD30) ADCs, average DAR 4. How it is done:
as §1, §4

The subject of a further experiment is L428, MDR + HL. The experiment can be described thus: In vitro growth inhibition (CellTiter-Glo, 96 h), L428. It counts as cell-based. The settings on record: cAC10 (anti-CD30) ADCs, average DAR 4. How it is done:
as §1, §4

In experiment [1] the test system is DEL/BVR anaplastic large cell lymphoma xenograft. Put plainly: DEL/BVR MDR+, CD30+ anaplastic large cell lymphoma xenograft model. Conditions: cAC10 S239C ADCs, average DAR 2; 3 mg/kg single dose i.p. It counts as in vivo, SCID mice. The method, then:
(§5) All experiments were conducted in concordance with the Animal Care and Use Committee in a facility fully accredited by the Association for Assessment and Accreditation of Laboratory Animal Care. Efficacy experiments were conducted using the L540cy Hodgkin's lymphoma and DEL/BVR anaplastic large cell lymphoma xenograft models (Mol. Cancer Ther., 2018, 17(8), 1752-1760). Tumor cells, as a cell suspension, were implanted subcutaneously in immune-compromised SCID female mice. Upon tumor engraftment, the mice were randomized into study groups when the average tumor volume reached about 100 mm^3. The ADCs were dosed once via intraperitoneal injection. Tumor volume as a function of time was determined using the formula (L×W2)/2. Animals were euthanized when tumor volumes reached 1000 mm^3.
Anti-CD30 conjugates bearing PNU drug-linkers 29, 18, and 14 were further evaluated in a DEL/BVR MDR+, CD30+ anaplastic large cell lymphoma xenograft model. cAC10 antibody with the S239C mutation is conjugated to the PNU drug linkers with an average DAR of 2 to minimize the effects of ADC pharmacokinetics. Tumor-bearing mice were administered a 3 mg/kg single dose intraperitoneally (i.p.) of test article once the average tumor volume reached 100 mm^3 (typically on day 4). […] However, the conjugate comprising PNU linker 29 appeared to be non-efficacious, and only provided minimal tumor growth delay (FIG. 2). Untreated mice were used as negative controls.

For another experiment, the system named is DEL, ALCL. The experiment can be described thus: In vitro growth inhibition (CellTiter-Glo, 96 h), DEL. Format: cell-based. Conditions: cAC10 (anti-CD30) ADCs, average DAR 4. The method, then: as §1, §4
Experiment [2] has as its system L540cy, 786-O, BxPC3, HL60, HL60/RV. The settings on record: 24 h.
In another experiment the test system is HL60, AML. Put plainly: In vitro growth inhibition (CellTiter-Glo, 96 h), HL60. It counts as cell-based. The settings on record: cOKT9 ADCs, average DAR 8, 96 h. The method, then: as §1, §2, §3
In the next experiment the test system is 786-O, MDR + RCC. The experiment can be described thus: In vitro growth inhibition (CellTiter-Glo, 96 h), 786-O. Format: cell-based. Conditions: cOKT9 ADCs, average DAR 8, 96 h. The method, then: as §1, §2, §3
The subject of another experiment is BxPC3, PancCa. Put plainly: In vitro growth inhibition (CellTiter-Glo, 96 h), BxPC3. The settings on record: cOKT9 ADCs, average DAR 8, 96 h. Format: cell-based. The method, then:
as §1, §2, §3

The test system of the next experiment is Ramos, CD30 − NHL. Put plainly: In vitro growth inhibition (CellTiter-Glo, 96 h), Ramos. Format: cell-based. The settings on record: cAC10 (anti-CD30) ADCs, average DAR 4. The method, then:
as §1, §4

Experiment [3] relates to L540cy Hodgkin's lymphoma xenograft. The experiment can be described thus: L540cy CD30+ Hodgkin lymphoma xenograft model. It counts as in vivo, SCID mice. The settings on record: cAC10 S239C ADCs, average DAR 2; single dose i.p. at about 100 mm^3. How it is done: as §5
Anti-CD30 conjugates bearing PNU drug-linkers 29, 18, and 14 were evaluated in a CD30-expressing xenograft model as described above. cAC10 antibody with the S239C mutation is conjugated to the PNU drug linkers with an average DAR of 2 to minimize the effects of ADC pharmacokinetics. Tumor-bearing mice were administered a single dose intraperitoneally (i.p.) of test article once the average tumor volume reached 100 mm^3 (typically on day 8). Untreated mice were used as negative controls.

Where [4] appears, read: cAC10 (anti-CD30) ADCs, average DAR 4.
Setting [5] is: cOKT9 ADCs, average DAR 8, 96 h.

For the compound `COc1cccc2c1C(=O)c1c(O)c3c(c(O)c1C2=O)C[C@@](O)(C(=O)NCCNC(=O)CNC(=O)CNC(=O)CNC(=O)CCN1C(=O)C=CC1=O)C[C@@H]3O[C@H]1C[C@H]2[C@H](O[C@@H]3[C@@H](OC)OCCN32)[C@H](C)O1` [Compound 18, (2S,4S)—N-(15-(2,5-dioxo-2,5-dihydro-1H-pyrrol-1-yl)-4,7,10,13-tetraoxo-3,6,9,12-tetraazapentadecyl)-2,5,12-trihydroxy-7-methoxy-4-(((1S,3R,4aS,9S,9aR,10aS)-9-methoxy-1-methyloctahydro-1H-pyrano[4′,3′:4,5]oxazolo[2,3-c][1,4]oxazin-3-yl)oxy)-6,11-dioxo-1,2,3,4,6,11-hexahydrotetracene-2-carboxamide], the “IC50 (ng/mL) L540cy, HL” value in the experiment with L540cy, HL (setting [4]) is reported as “B (1 ng/mL≤IC50<10 ng/mL)”; with L540cy, HL (setting [5]), “A (IC50<10 ng/mL)”. Also, in the experiment with HL60/RV, MDR + AML, the “IC50 (ng/mL) HL60/RV, MDR + AML” value is reported as “D (IC50≥1000 ng/mL)”. In addition, the “IC50 (ng/mL) Karpas299, ALCL” value with Karpas299, ALCL is recorded as “A (IC50<1 ng/mL)”. The “IC50 (ng/mL) L428, MDR + HL” value with L428, MDR + HL was “D (100 ng/mL≤IC50<500 ng/mL)”. Further, the “antitumor activity, DEL/BVR xenograft (FIG. 2)” value in experiment [1] is reported as “efficacious in suppressing tumor growth”. Besides, in the experiment with DEL, ALCL, the “IC50 (ng/mL) DEL, ALCL” value was “A (IC50<1 ng/mL)”. Moreover, the “IC50s of cOKT9 conjugates” value in [2] was 1 to 150 ng/mL. The “IC50 (ng/mL) HL60, AML” value in the experiment on HL60, AML is “B (10 ng/mL≤IC50<100 ng/mL)”. In addition, in the experiment on 786-O, MDR + RCC, the “IC50 (ng/mL) 786-O, MDR + RCC” value is recorded as “A (IC50<10 ng/mL)”. Also, the “IC50 (ng/mL) BxPC3, PancCa” value in the experiment with BxPC3, PancCa is given as “A (IC50<10 ng/mL)”. The “IC50 (ng/mL) Ramos, CD30 − NHL” value with Ramos, CD30 − NHL is given as “D (100 ng/mL≤IC50<500 ng/mL)”. In addition, in experiment [3], the “antitumor activity, L540cy xenograft (FIG. 1)” value is “active with a majority of animals in a complete regression”.

For `COc1cccc2c1C(=O)c1c(O)c3c(c(O)c1C2=O)C[C@@](O)(C(=O)NCCNC(=O)CNC(=O)CNC(=O)CNC(=O)OCc1ccc(NC(=O)[C@H](C)NC(=O)[C@@H](NC(=O)CCN2C(=O)C=CC2=O)C(C)C)cc1)C[C@@H]3O[C@H]1C[C@H]2[C@H](O[C@@H]3[C@@H](OC)OCCN32)[C@H](C)O1` [Compound 29, 4-((S)-2-((S)-2-(3-(2,5-dioxo-2,5-dihydro-1H-pyrrol-1-yl)propanamido)-3-methylbutanamido)propanamido)benzyl (1,6,9,12-tetraoxo-1-((2S,4S)-2,5,12-trihydroxy-7-methoxy-4-(((1S,3R,4aS,9S,9aR,10aS)-9-methoxy-1-methyloctahydro-1H-pyrano[4′,3′:4,5]oxazolo[2,3-c][1,4]oxazin-3-yl)oxy)-6,11-dioxo-1,2,3,4,6,11-hexahydrotetracen-2-yl)-2,5,8,11-tetraazatridecan-13-yl)carbamate], the “IC50 (ng/mL) L540cy, HL” value with L540cy, HL (setting [4]) is “B (1 ng/mL≤IC50<10 ng/mL)”; in the experiment on L540cy, HL (setting [5]), “A (IC50<10 ng/mL)”. Besides, the “IC50 (ng/mL) HL60/RV, MDR + AML” value in the experiment on HL60/RV, MDR + AML is reported as “D (IC50≥1000 ng/mL)”. Moreover, in the experiment with Karpas299, ALCL, the “IC50 (ng/mL) Karpas299, ALCL” value is on record as “A (IC50<1 ng/mL)”. The “IC50 (ng/mL) L428, MDR + HL” value in the experiment on L428, MDR + HL was “E (IC50≥500 ng/mL)”. In addition, in experiment [1], the “antitumor activity, DEL/BVR xenograft (FIG. 2)” value is reported as “non-efficacious”. The “IC50 (ng/mL) DEL, ALCL” value in the experiment on DEL, ALCL is recorded as “A (IC50<1 ng/mL)”. Moreover, the “IC50s of cOKT9 conjugates” value in experiment [2] is 1 to 150 ng/mL. The “IC50 (ng/mL) HL60, AML” value with HL60, AML is “B (10 ng/mL≤IC50<100 ng/mL)”. The “IC50 (ng/mL) 786-O, MDR + RCC” value in the experiment on 786-O, MDR + RCC is reported as “B (10 ng/mL≤IC50<100 ng/mL)”. The “IC50 (ng/mL) BxPC3, PancCa” value in the experiment on BxPC3, PancCa is listed as “A (IC50<10 ng/mL)”. In the experiment with Ramos, CD30 − NHL, the “IC50 (ng/mL) Ramos, CD30 − NHL” value is listed as “E (IC50≥500 ng/mL)”. Further, in experiment [3], the “antitumor activity, L540cy xenograft (FIG. 1)” value was “active with a majority of animals in a complete regression”.
